Data on five molecules can be found in patent US5932242A, “Ether lipid-containing pharmaceutical compositions and therapeutic uses thereof” (The Liposome Company, Inc., priority 1996, dated 1999).

Data set [1] in a line: Monolayer mean molecular area per molecule (MMAM) measurement, Langmuir-Blodgett mini-trough. In kind it is physicochemical. The settings on record: single-lipid monolayer, 23° C., 10 mM HEPES, 150 mM NaCl, pH 7.2, extrapolated to zero surface pressure. From the text: A measure of the amount of space occupied by a lipid molecule is the mean area ("MMAM") that a molecule of the lipid occupies in a monolayer formed of that lipid. MMAM values for various lipids can readily be determined by ordinarily skilled artisans given the teachings of this invention, for example, as set forth in Example 1 below. MMAM values can be determined by first forming a lipid monolayer on the surface of an aqueous medium contained within a suitable trough, by the drop-wise addition of a lipid solution to the surface of the aqueous medium. […] Surface pressures for the different surface areas are recorded, and area-vs.-pressure curves compiled. MMAM values are obtained from these curves by extrapolating the steepest portion of the curve to a lipid's surface area at zero pressure.
The mean area occupied by a lipid molecule in a monolayer formed by a combination of cone-shaped and inverted cone-shaped lipids could be calculated according to the equation A0 =X^1 ·A^1 +X^2 ·A^2 (see Ali et al., the contents of which are incorporated herein by reference), wherein "A0 " is the MMAM expected of the lipids in the two component system, X^1 and X^2 are the relative mole percentages of the lipids in the combination, and A^1 and A^2 are the measured MMAM values of the individual lipids. Accordingly, the combination of lipids in a two-component monolayer would be expected to result in a mean molecular area per lipid molecule ("MMAMexpected ") reflective of the relative proportions in which each of the constituent lipids is present in the combination. That is, calculated in accordance with the above equation, the MMAM value expected of the lipids would be additive.
The mean molecular area per molecule of formulations containing the ether lipid ET-18-OCH3 was determined using a Langmuir-Blodgett mini-trough equipped with a dual barrier mechanism and a Wilhelmy balance, all obtained from KSV Instruments (Trumbull, Conn.). ET-18-OCH3 formulations were prepared from lipid powders that were dissolved in a solvent system of hexane:ethanol 9:1. Single lipid solutions and mixtures were made to contain an overall lipid concentration of approximately 1.5 mM which was quantitated precisely by phosphate (Chen et al., 1956) and cholesterol assays (Rudel & Morris, 1973). Monolayers were formed by dropwise addition of sample on to the aqueous surface (10 mM HEPES, 150 mM NaCl buffer, pH 7.2) at the center of the trough. Sample was added until the surface pressure just started to rise above zero, at which time the exact volume of sample added was recorded. After waiting three minutes for solvent evaporation and monolayer stabilization, the surface area of the monolayer was reduced at a rate of 15 cm^2 /min, and surface pressure was recorded. The solution level was maintained 1 mm below the top edge of the trough to avoid leakage; contact was maintained with the barriers (composed of Delrin) due to their hydrophilic nature.
Pressure vs. area curves were compiled from data obtained as described above (see FIGS. 1 and 2), and MMAM values were determined by extrapolating the steepest portion of the curve to the value at zero surface pressure. […] All experiments were done at 23° C. […] MMAMs (A0) were determined for each lipid by extrapolation of the steepest portion of the curves to the value at zero surface pressure; and are as follows: ET-18-OCH3 : 72.8 Å^2; CHOL: 44.8 Å^2; DOPE: 82.3 Å^2; POPC: 82.0 Å^2; and, DOPC: 82.0 Å^2.

The conditions of data set [2]: art knowledge; cited from earlier work.
Data set [3] can be described thus: Hemolysis of washed human red blood cells (H50). In kind it is cell-based. Conditions: human, red blood cells. As to the method: (§1) The hemolytic activity of ET-18-OCH3 /CHOL, DOPE, POPC or DOPC liposomes, prepared as described below in Example 2, have also been examined, as described hereinbelow in Example 3. Results, presented hereinbelow in FIG. 3, are in the form of the ET-18-OCH3 concentration in the various liposomes required to achieve hemolysis of 50% of the red blood cells present in a sample (H50).
(§2) […] All liposomes were extruded, in order to assure uniform size distribution.
(§3) Hemolysis was assessed as previously described (Perkins et al., 1992). Briefly, each sample was serially diluted with buffer solution and 0.3 ml of each diluted solution was mixed with 0.3 ml of washed human red blood cells [4% in PBS (v/v)]. For controls, 0.3 ml of the red blood cell suspension was mixed with either 0.3 ml of buffer solution (negative hemolysis control) or 0.3 ml of distilled water (positive hemolysis control). Samples and standards were placed in a 37° C. incubator and agitated for 20 hours. Tubes were centrifuged at low speed (2000 g) for 10 minutes to pellet RBCs. Two hundred μl of the supernatant was removed and mixed with 1 ml of water. Hemolysis was quantitated by absorbance at 550 nm using a Shimadzu 2101 UV-Vis Scanning Spectrophotometer (Shimadzu Corp., Kyoto, Japan). One hundred percent hemolysis was defined as the maximum amount of hemolysis obtained from free ET-18-OCH3.

The next data set has as its system human red blood cells. Briefly: Hemolysis of washed human red blood cells (H50). The class given is cell-based. The settings on record: concluded from hemolysis of 60 mole % ET-18-OCH3 /cholesterol SUVs. As to the method: as §1, §2, §3

Consider `CC(C)CCC[C@@H](C)[C@H]1CC[C@H]2[C@@H]3CC=C4C[C@@H](O)CC[C@]4(C)[C@H]3CC[C@]12C` [CHOL, cholesterol], for which, in data set [1], the “MMAM (A0) of individual lipid” value was 44.8 Å^2. Besides, in data set [2], the packing parameter is on record as 1.2-1.3. Turning to `CCCCCCCC/C=C\CCCCCCCC(=O)OCC(COP(=O)([O-])OCC[N+](C)(C)C)OC(=O)CCCCCCC/C=C\CCCCCCCC` (stereo not drawn) [DOPC, dioleoyl phosphatidylcholine], the “MMAM (A0) of individual lipid” value in data set [1] is recorded as 82.0 Å^2. As for `CCCCCCCC/C=C\CCCCCCCC(=O)OCC(COP(=O)(O)OCCN)OC(=O)CCCCCCC/C=C\CCCCCCCC` (stereo not drawn) [DOPE, dioleoyl phosphatidylethanolamine], in data set [1], the “MMAM (A0) of individual lipid” value is 82.3 Å^2. Also, the packing parameter in data set [2] is 1.2-1.3. As to `CCCCCCCCCCCCCCCCCCOC[C@H](COP(=O)([O-])OCC[N+](C)(C)C)OC` [ET-18-OCH3, 1-O-octadecyl-2-O-methyl-sn-3-phosphorylcholine], the HC50 (in general, the concentration that lyses half of the red blood cells) at 20 h in data set [3] is 16 µM. In addition, the “Ability to form stable liposome structures” value with human red blood cells was “does not form stable liposome structures above a 1:1 stoichiometry”. For the same molecule, the “MMAM (A0) of individual lipid” value in data set [1] was 72.8 Å^2. In the case of `CCCCCCCC/C=C\CCCCCCCC(=O)OC(COC(=O)CCCCCCCCCCCCCCC)COP(=O)([O-])OCC[N+](C)(C)C` (stereo not drawn) [POPC, palmitoyloleoyl phosphatidylcholine], the “MMAM (A0) of individual lipid” value in data set [1] was 82.0 Å^2.
